Test results from patent US11318141B2, “Methods and compositions related to STK1-targeted small molecules as antibiotic resistance breakers” (Ohio State Innovation Foundation, priority 2017, dated 2022).

Tests used:
[1] = biological target: S. aureus STKK1 (the soluble kinase domain of STK1, 280 aa) (Staphylococcus aureus, UniProt A0ABF7PGK0); assay: In vitro kinase assay: inhibition of autophosphorylation of recombinant STKK1 (γ32P-ATP); type: biochemical; conditions: after 5 min pre-incubation
S. aureus STKK1 (the soluble kinase domain of STK1, 280 aa), sequence (A0ABF7PGK0 entry or part of it): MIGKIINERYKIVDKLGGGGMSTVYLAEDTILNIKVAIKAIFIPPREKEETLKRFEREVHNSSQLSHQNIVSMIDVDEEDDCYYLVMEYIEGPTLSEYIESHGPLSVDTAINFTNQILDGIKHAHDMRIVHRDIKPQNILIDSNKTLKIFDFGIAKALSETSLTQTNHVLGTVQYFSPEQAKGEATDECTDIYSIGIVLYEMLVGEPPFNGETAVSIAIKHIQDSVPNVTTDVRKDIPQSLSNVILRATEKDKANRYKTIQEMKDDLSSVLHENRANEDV
Protocol: For the present study, recombinant His-tag-STKK1 was created along with part of the adjacent juxta-membrane domain (1-280 aa) using the pET14b vector system and specific primers (Table-1 and Table-2) as described previously. The recombinant proteins were expressed in BL21 DE3 (pLysS) and purified using Ni^+2-NTA-affinity chromatography, dialyzed against 10 mM Tris/HCl, pH 7.5, and stored as 10% glycerol stock (500 μg/ml) at −20° C. as described previously. In vitro kinase assays were performed using 2 μg STKK1 in the presence of 1 μCi γ^32P-ATP (specific activity 3000 Ci/mMol, PerkinElmer) at 30° C. for 45 min in a final volume of 30 μl phosphorylation buffer (50 mM Tris/HCl, pH7.5, 1 mM dithiothreitol, 5 mM MgCl2, and/or 5 mM MnCl2). The inhibition of autophosphorylation of STKK1 was carried out using this assay in the presence and absence of (50 μM) individual members of the 32 prescreened small molecule compound library. Phosphorylated proteins were separated by SDS-PAGE and subsequently identified by using Coomassie stain and autoradiography. The individual phosphorylated protein bands were then excised and subjected to radioactive counting using beta-scintillation counter for quantitative analysis. Experiments were repeated at least three times for statistical analysis.

S. aureus MW2-WT = assay: Time-to-kill assay (OD and CFU counts over 16 h), broth dilution; type: cell-based, Staphylococcus aureus
Protocol: FIGS. 4A-F show. […] Optical Density and corresponding Colony forming units of (C and D) MW2-WT and (E and F) MW2ΔSTK1 cultures in the presence or absence 50 μM Inh2-B1, 1.51 μM (1 μg/ml) Ceftriaxone, 2.125 μM (1 μg/ml) Cefotaxime, and combination of Inh2-B1 plus Ceftriaxone, and Inh2-B1 plus Cefotaxime. The experiments were carried out as described in the Materials and Method section using Muller-Hinton broth and seeded with 4×10^6 CFUs of S. aureus MW2-Wild type or MW2ΔSTK1 strains per well. Each data points represent Mean±S.D. P values of significance (**=<0.01, ***=<0.001) were determined using the t-test with Welch's corrections. NS—Not significant.
Subsequently, the susceptibility of S. aureus MW2 strain to Ceftriaxone, Cefotaxime, Inh2, and Inh2-B1 was confirmed by the CLSI recommended serial dilution method using Muller Hinton broth. Minimum bactericidal activity (MBC) was measured using Muller-Hinton agar. Changes in the MBC of Ceftriaxone/Cefotaxime in the presence of serially diluted Inh2-B1 was determined in two steps. Initial screening was carried out using the Checkerboard method using Muller-Hinton agar (FIG. 15). […] Subsequent time to kill assays were carried out using 50 μM Inh2-B1 and Ceftriaxone. Cefotaxime (1 μg/ml) in a final volume of 250 μl using a sterile 96-well (U-bottom) microtiter plate over a period of 16 h at 37° C. under constant rotation (120 rpm). Optical density and corresponding CFU counts were measured at every two-hour interval up to 8 hours with a final overnight reading at the end of incubation period. CFU counts were measured using appropriate dilution of 10 μl of properly mixed samples at each time interval. All experiments were performed in three biological replicates and the statistical analysis of the results obtained at each time point was carried out by the non-parametric t-test with Welch's correction using GraphPad Prism 6 software.

[2] = system: S. aureus MW2 wild-type biofilms; assay: Biofilm formation, crystal violet stain method; type: cell-based, Staphylococcus aureus; conditions: 25 μM
Protocol: (§1) The ability to form biofilms by S. aureus MW2 strain in the absence and presence of Inh2-B1 was determined using the crystal violet stain method. Briefly, the assay was carried out in 24-well tissue culture plates in a final volume of 500 μl of TSB broth with or without Inh2-B1 (25 μM). The culture plates were then seeded with 1:1000 dilution of the freshly grown S. aureus cultures to late log phase (O.D600=0.8) and further incubated for 48 h. At the end of incubation, the culture medium from each well was carefully removed and stained with 1% Crystal violet for 5 min. The unbound stain was then removed by repeated washings with distilled water and air dried. The stained biofilms were then extracted and dissolved in 500 μl 100% of isopropanol. Aliquots of fully suspended biofilms (100 μl/well) in isopropanol from each well were spectrophotometrically (λ=550 nm) analyzed using a microtiter plate reader (Molecular Devices). The test samples were analyzed after subtracting the background values obtained from wells containing an only medium. All results were obtained with three independent cultures each in three wells. In another set of experiments. Inh2-B1 (25 μM) was added to the 48 h-grown established biofilms of S. aureus MW2 to determine the impact of Inh2-B1 on the preformed biofilms and its ability to disrupt or further formation of biofilms. For this, old medium was carefully removed to allow the minimal loss of the loosely attached apical part of the preformed biofilms and replace with 2 ml of fresh TSB medium with or without 25 μM Inh2-B1 inhibitor and incubated further for 48 h at 37° C. Subsequently, the biofilm formation or its disruption was quantitatively estimated as described above and statistically evaluated.

[3] = system: S. aureus MW2ΔSTP1 biofilms; assay: Biofilm formation, crystal violet stain method; type: cell-based, Staphylococcus aureus; conditions: 25 μM
Protocol: as §1

BEAS-2B cells = assay: MTT cell proliferation assay; type: cell-based, human; conditions: 24 h
Protocol: (§2) Impact of Inh2-B1 on cell proliferation was determined by MTT (3-[4,5-dimethylthiazol-2-yl]-2,5 diphenyl tetrazolium bromide)-based assay using Roche Colorimetric proliferation assay kit. Cell lines mentioned above were grown in 96-well tissue culture plates in the CO2 incubator at 37° C. The cells were treated with Inh2-B1 as described above in a final volume of 100 μl for 24 h. At the end of incubation, tissue culture medium from each well was removed and replaced with fresh 100 μl of the medium containing MTT solution (0.5 mg/ml) and further incubated for 4 h. The purple color of formazan salt crystals formed in each well was solubilized with the addition of 100 μl of 10% SDS solution in 0.01M HCl and further incubating for 10-12 h. The solubilized formazan product in each well was spectrophotometrically analyzed using a microtiter plate reader (Molecular Devices, 570 nm). Absorbance values of wells containing MTT reagents without cells and the untreated cultured cells with MTT reagents were considered as the background and negative controls. All tests were performed in triplicate wells. The average background value obtained from 10 wells was subtracted from the test values, and the corrected values obtained from untreated and treated cells were statistically analyzed by Student's test. P<0.05 was treated as a significant difference.

Detroit 562 cells = assay: MTT cell proliferation assay; type: cell-based, human; conditions: even at 100 μM, 24 h
Protocol: as §2

COC(=O)c1ccc2c(=O)[nH]c3c(C(=O)Nc4ccccc4)sc(=S)n3c2c1 [Inh2-B1, Methyl 5-oxo-3-(phenylcarbamoyl)-1-thioxo-4,5dihydro[1,3]thiazolo[3,4-a]quinazoline-8-carboxylate]
IC50 [1]: 49 µM | log increase in growth from starting inoculum (S. aureus MW2-WT; 100 μM Inh2-B1, 16 h): more than 3 log | CFU count of MW2-WT after growth (S. aureus MW2-WT; 100 μM Inh2-B1, 16 h, starting inoculum 4×10^6 CFU): 1.8±1.0×10^9 CFU | growth pattern of the MW2 wild-type in the presence of Inh2-B1 (S. aureus MW2-WT; FIGS. 4A and 4B, mimicked MW2ΔSTK1): slightly retarded | growth of the MW2 wild-type, mixture (S. aureus MW2-WT; mixture of 1.5 μM Ceftriaxone (1 μg/ml) and 50 μM Inh2-B1): dramatically inhibited | growth pattern of the wild-type, single agent (S. aureus MW2-WT; only 50 μM Inh2-B1, only 1.5 μM Ceftriaxone (1 μg/ml) or only 3 μM Cefotaxime (1 μg/ml), 16 h): remained unaltered | log reduction in comparison to the wild-type (S. aureus MW2-WT; very high concentration (100 μM) of Inh2-B1): ~2 log | biofilm formation in the presence of Inh2-B1 ([2]; 48 h): significantly decreased formation of biofilms | effect on preformed biofilms ([2]; further 48 h): significant reduction in biofilm formation | biofilm formation in the presence of Inh2-B1 ([3]; 48 h): significantly decreased formation of biofilms | effect on preformed biofilms ([3]; further 48 h): significant reduction in biofilm formation | cell proliferation inhibition (MTT) (BEAS-2B cells; 50 μM): ~20% | cell proliferation inhibition (MTT) (BEAS-2B cells; 100 μM): ~40% | effect on cell proliferation (MTT) (Detroit 562 cells): did not affect cell proliferation
